According to patent US12565501B2, “Muscarinic acetylcholine M1 receptor antagonists” (Contineum Therapeutics, Inc., priority 2019, dated 2026):

Biological target: T1, human M1 receptor (Homo sapiens, UniProt P11229)
T1 sequence (P11229 1-460): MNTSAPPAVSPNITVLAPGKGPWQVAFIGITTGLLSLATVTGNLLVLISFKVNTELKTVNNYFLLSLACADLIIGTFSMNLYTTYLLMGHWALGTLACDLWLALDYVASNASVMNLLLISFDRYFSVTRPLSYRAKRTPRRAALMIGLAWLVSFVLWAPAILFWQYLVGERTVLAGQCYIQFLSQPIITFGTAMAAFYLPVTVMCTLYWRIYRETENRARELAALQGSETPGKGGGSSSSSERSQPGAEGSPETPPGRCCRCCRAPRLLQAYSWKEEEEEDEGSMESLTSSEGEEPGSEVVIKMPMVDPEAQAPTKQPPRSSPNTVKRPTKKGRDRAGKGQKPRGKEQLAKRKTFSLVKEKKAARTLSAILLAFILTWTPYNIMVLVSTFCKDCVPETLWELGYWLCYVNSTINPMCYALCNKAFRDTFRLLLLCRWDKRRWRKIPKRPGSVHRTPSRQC
Test: In vitro functional assay of muscarinic acetylcholine receptor activity (aequorin calcium flux, reversal of EC80 acetylcholine response)
Type: cell-based
Conditions: CHO-K1 cells stably expressing human M1 receptor with aequorin; acetylcholine at EC80; calcium flux (luminescence); read-out: M1 IC50
Outline: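 CHO-K1 cells expressing human M1 and aequorin, loaded with 5 μM coelenterazine for 4 h, preincubated with compound 30 min at room temperature, then challenged with EC80 acetylcholine.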

SMILES	IC50
COc1cc([C@@H](C)NCCC(=O)N2C[C@H]3CC[C@@H](C2)N3c2ccc(C#N)cn2)ccn1 [Example 21, 6-(3-(3-(((R)-1-(2-methoxypyridin-4-yl)ethyl)amino)propanoyl)-3,8-diazabicyclo[3.2.1]octan-8-yl)nicotinonitrile]	100 to 1000 nM
COc1cc([C@H](C)NCCC(=O)N2C[C@H]3CC[C@@H](C2)N3c2ccc(C#N)cn2)ccn1 [Example 22, 6-(3-(3-(((S)-1-(2-methoxypyridin-4-yl)ethyl)amino)propanoyl)-3,8-diazabicyclo[3.2.1]octan-8-yl)nicotinonitrile]	1000 to 10000 nM
N#Cc1ccc(N2C3CCC2CN(C(=O)CCN2CC(c4ccc(F)cc4)C2)C3)nc1 [Example 24]	> 1000 nM
CC(C)(NCCC(=O)N1C[C@H]2CC[C@@H](C1)N2c1ccc(C#N)cn1)c1cccc2ncccc12 [Example 25, 6-(3-(3-((2-(quinolin-5-yl)propan-2-yl)amino)propanoyl)-3,8-diazabicyclo[3.2.1]octan-8-yl)nicotinonitrile]	< 10 nM
N#Cc1ccc(N2[C@@H]3CC[C@H]2CN(C(=O)CCNC2(c4ccc(F)cc4F)CC2)C3)nc1 [Example 26, 6-(3-(3-((1-(2,4-difluorophenyl)cyclopropyl)amino)propanoyl)-3,8-diazabicyclo[3.2.1]octan-8-yl)nicotinonitrile]	10 to 100 nM
N#Cc1ccc(N2[C@@H]3CC[C@H]2CN(C(=O)CCNC2(c4cccc5ncccc45)CC2)C3)nc1 [Example 27, 6-(3-(3-((1-(quinolin-5-yl)cyclopropyl)amino)propanoyl)-3,8-diazabicyclo[3.2.1]octan-8-yl)nicotinonitrile]	< 10 nM
N#Cc1ccc(N2[C@@H]3CC[C@H]2CN(C(=O)CCNC2(c4ccc(F)nc4)CC2)C3)nc1 [Example 28, 6-(3-(3-((1-(6-fluoropyridin-3-yl)cyclopropyl)amino)propanoyl)-3,8-diazabicyclo[3.2.1]octan-8-yl)nicotinonitrile]	< 10 nM
N#Cc1ccc(N2[C@@H]3CC[C@H]2CN(C(=O)CCNC2(c4ccc(F)cn4)CC2)C3)nc1 [Example 29, 6-(3-(3-((1-(5-fluoropyridin-2-yl)cyclopropyl)amino)propanoyl)-3,8-diazabicyclo[3.2.1]octan-8-yl)nicotinonitrile]	1000 to 10000 nM
N#Cc1ccc(N2[C@@H]3CC[C@H]2CN(C(=O)CCNC2(c4cncc(F)c4)CC2)C3)nc1 [Example 30, 6-(3-(3-((1-(5-fluoropyridin-3-yl)cyclopropyl)amino)propanoyl)-3,8-diazabicyclo[3.2.1]octan-8-yl)nicotinonitrile]	100 to 1000 nM
N#Cc1ccc(N2[C@@H]3CC[C@H]2CN(C(=O)CCNC2(c4ncc(F)cc4F)CC2)C3)nc1 [Example 31, 6-(3-(3-((1-(3,5-difluoropyridin-2-yl)cyclopropyl)amino)propanoyl)-3,8-diazabicyclo[3.2.1]octan-8-yl)nicotinonitrile]	100 to 1000 nM
N#Cc1ccc(N2[C@@H]3CC[C@H]2CN(C(=O)CCNC2(c4cccc(F)c4F)CC2)C3)nc1 [Example 32, 6-(3-(3-((1-(2,3-difluorophenyl)cyclopropyl)amino)propanoyl)-3,8-diazabicyclo[3.2.1]octan-8-yl)nicotinonitrile]	10 to 100 nM
N#Cc1ccc(N2[C@@H]3CC[C@H]2CN(C(=O)CCNC2(c4cc(F)cc(F)c4)CC2)C3)nc1 [Example 33, 6-(3-(3-((1-(3,5-difluorophenyl)cyclopropyl)amino)propanoyl)-3,8-diazabicyclo[3.2.1]octan-8-yl)nicotinonitrile]	10 to 100 nM
N#Cc1ccc(N2[C@@H]3CC[C@H]2CN(C(=O)CCNC2(c4ccc(Cl)c(F)c4)CC2)C3)nc1 [Example 34, 6-(3-(3-((1-(4-chloro-3-fluorophenyl)cyclopropyl)amino)propanoyl)-3,8-diazabicyclo[3.2.1]octan-8-yl)nicotinonitrile]	< 10 nM
N#Cc1ccc(N2[C@@H]3CC[C@H]2CN(C(=O)CCNC2(c4ccc(F)c(Cl)c4)CC2)C3)nc1 [Example 35, 6-(3-(3-((1-(3-chloro-4-fluorophenyl)cyclopropyl)amino)propanoyl)-3,8-diazabicyclo[3.2.1]octan-8-yl)nicotinonitrile]	10 to 100 nM
COc1cc(C2(NCCC(=O)N3CC4CCC(C3)N4c3ccc(C#N)cn3)CC2)ccn1 [Example 36, 6-(3-(3-((1-(2-methoxypyridin-4-yl)cyclopropyl)amino)propanoyl)-3,8-diazabicyclo[3.2.1]octan-8-yl)nicotinonitrile]	1000 to 10000 nM
N#Cc1ccc(N2[C@@H]3CC[C@H]2CN(C(=O)CCNC2(c4ccc(F)c(F)c4)CCC2)C3)nc1 [Example 37, 6-(3-(3-((1-(3,4-difluorophenyl)cyclobutyl)amino)propanoyl)-3,8-diazabicyclo[3.2.1]octan-8-yl)nicotinonitrile]	< 10 nM

SMILES	IC50
N#Cc1ccc(N2[C@@H]3COC[C@H]2CN(C(=O)CCNC2(c4ccc(F)c(F)c4)CC2)C3)nc1 [Example 39, 6-(7-(3-((1-(3,4-difluorophenyl)cyclopropyl)amino)propanoyl)-3-oxa-7,9-diazabicyclo[3.3.1]nonan-9-yl)nicotinonitrile]	100 to 1000 nM
N#Cc1ccc(N2[C@@H]3C[C@H]2CN(C(=O)CCNC2(c4ccc(F)c(F)c4)CC2)C3)nc1 [Example 40, 6-(3-(3-((1-(3,4-difluorophenyl)cyclopropyl)amino)propanoyl)-3,6-diazabicyclo[3.1.1]heptan-6-yl)nicotinonitrile]	1000 to 10000 nM
N#Cc1ccc(N2C[C@H]3CC[C@@H]2CN3C(=O)CCNC2(c3ccc(F)c(F)c3)CC2)nc1 [Example 41, 6-((1R,4R)-5-(3-((1-(3,4-difluorophenyl)cyclopropyl)amino)propanoyl)-2,5-diazabicyclo[2.2.2]octan-2-yl)nicotinonitrile]	10 to 100 nM
N#Cc1ccc(N2[C@@H]3CC[C@H]2CN(C(=O)CCNC2(c4ccc(F)c(F)c4)CC2)C3)nn1 [Example 42, 6-(3-(3-((1-(3,4-difluorophenyl)cyclopropyl)amino)propanoyl)-3,8-diazabicyclo[3.2.1]octan-8-yl)pyridazine-3-carbonitrile]	< 10 nM
N#Cc1cc(N2[C@@H]3CC[C@H]2CN(C(=O)CCNC2(c4ccc(F)c(F)c4)CC2)C3)ccn1 [Example 43, 4-(3-(3-((1-(3,4-difluorophenyl)cyclopropyl)amino)propanoyl)-3,8-diazabicyclo[3.2.1]octan-8-yl)picolinonitrile]	10 to 100 nM
N#Cc1cnc(N2[C@@H]3CC[C@H]2CN(C(=O)CCNC2(c4ccc(F)c(F)c4)CC2)C3)nc1 [Example 44, 2-(3-(3-((1-(3,4-difluorophenyl)cyclopropyl)amino)propanoyl)-3,8-diazabicyclo[3.2.1]octan-8-yl)pyrimidine-5-carbonitrile]	100 to 1000 nM
N#Cc1cnc(N2[C@@H]3CC[C@H]2CN(C(=O)CCNC2(c4ccc(F)c(F)c4)CC2)C3)cn1 [Example 45, 5-(3-(3-((1-(3,4-difluorophenyl)cyclopropyl)amino)propanoyl)-3,8-diazabicyclo[3.2.1]octan-8-yl)pyrazine-2-carbonitrile]	10 to 100 nM
N#Cc1ccc(N2[C@@H]3CC[C@H]2CN(C(=O)CCNC2(c4ccc(F)c(F)c4)CC2)C3)cn1 [Example 46, 5-(3-(3-((1-(3,4-difluorophenyl)cyclopropyl)amino)propanoyl)-3,8-diazabicyclo[3.2.1]octan-8-yl)picolinonitrile]	< 10 nM
Cc1ccc(N2[C@@H]3CC[C@H]2CN(C(=O)CCNC2(c4ccc(F)c(F)c4)CC2)C3)nn1 [Example 47, 3-((1-(3,4-difluorophenyl)cyclopropyl)amino)-1-(8-(6-methylpyridazin-3-yl)-3,8-diazabicyclo[3.2.1]octan-3-yl)propan-1-one]	10 to 100 nM
N#Cc1ccc(N2C3CCC2CN(C(=O)CNC2(c4ccc(F)c(F)c4)CC2)C3)nc1 [Example 60, 6-(3-((1-(3,4-difluorophenyl)cyclopropyl)glycyl)-3,8-diazabicyclo[3.2.1]octan-8-yl)nicotinonitrile]	10 to 100 nM
N#Cc1ccc(N2C3CCC2CN(C(=O)CNC2(c4ccccc4F)CC2)C3)nc1 [Example 61, 6-(3-((1-(2-fluorophenyl)cyclopropyl)glycyl)-3,8-diazabicyclo[3.2.1]octan-8-yl)nicotinonitrile]	100 to 1000 nM
N#Cc1ccc(N2C3CCC2CN(C(=O)CNC2(c4cccc(C#N)c4)CC2)C3)nc1 [Example 62, 6-(3-((1-(3-cyanophenyl)cyclopropyl)glycyl)-3,8-diazabicyclo[3.2.1]octan-8-yl)nicotinonitrile]	100 to 1000 nM
N#Cc1ccc(N2C3CCC2CN(C(=O)CNC2(c4ccccn4)CC2)C3)nc1 [Example 63, 6-(3-((1-(pyridin-2-yl)cyclopropyl)glycyl)-3,8-diazabicyclo[3.2.1]octan-8-yl)nicotinonitrile]	1000 to 10000 nM
N#Cc1ccc(N2C3CCC2CN(C(=O)CNC2(c4cccnn4)CC2)C3)nc1 [Example 64, 6-(3-((1-(pyridazin-3-yl)cyclopropyl)glycyl)-3,8-diazabicyclo[3.2.1]octan-8-yl)nicotinonitrile]	100 to 1000 nM
COc1ccccc1[C@H](C)NCC(=O)N1CC2CCC(C1)N2c1ccc(C#N)cn1 [Example 65, 6-(3-(((S)-1-(2-methoxyphenyl)ethyl)glycyl)-3,8-diazabicyclo[3.2.1]octan-8-yl)nicotinonitrile]	< 10 nM
